In PMC8518382, “Identification of a Bromodomain‐like Region in 15‐Lipoxygenase‐1 Explains Its Nuclear Localization” (Angewandte Chemie (International Ed. in English), 2021):
Values joined by “and” are separate entries in the source; they are usually repeats but may differ in a detail not shown here. Equal values may be shown once.

How the values were obtained:
15-LOX-2 = target: T1, 15-LOX-2 (Homo sapiens, UniProt O15296); experiment: ABP-based ELISA assay with A549 cell lysate, 15-LOX-2; type: biochemical
T1 construct: endogenous in cells; host or cells: A549 cell lysate
T1 sequence (O15296 1-676): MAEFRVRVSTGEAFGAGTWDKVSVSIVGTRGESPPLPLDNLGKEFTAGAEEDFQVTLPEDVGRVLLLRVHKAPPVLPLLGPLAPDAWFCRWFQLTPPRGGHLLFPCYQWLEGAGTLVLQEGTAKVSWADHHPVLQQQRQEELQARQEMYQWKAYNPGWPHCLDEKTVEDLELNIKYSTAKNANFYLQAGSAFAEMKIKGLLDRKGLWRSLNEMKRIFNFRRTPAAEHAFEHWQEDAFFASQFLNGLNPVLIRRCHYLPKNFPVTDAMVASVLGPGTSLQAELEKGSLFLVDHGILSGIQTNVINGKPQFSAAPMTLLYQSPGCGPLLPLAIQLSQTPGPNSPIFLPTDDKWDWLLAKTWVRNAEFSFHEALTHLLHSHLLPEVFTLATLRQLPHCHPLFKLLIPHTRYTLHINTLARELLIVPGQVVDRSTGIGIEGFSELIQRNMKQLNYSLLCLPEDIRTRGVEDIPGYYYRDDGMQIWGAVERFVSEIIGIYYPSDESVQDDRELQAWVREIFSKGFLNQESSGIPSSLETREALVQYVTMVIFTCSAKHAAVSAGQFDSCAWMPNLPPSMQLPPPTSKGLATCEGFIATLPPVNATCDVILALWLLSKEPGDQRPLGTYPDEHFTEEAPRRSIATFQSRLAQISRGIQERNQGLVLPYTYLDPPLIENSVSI
Description: (§1) A549 cell lysate was treated with a serial dilution of the respective inhibitor. Subsequently, samples were labeled by treatment with 1 μM of Labelox B for 1 min. […] Data are mean±s.d., n≥3 independent experiments. […]
(§2) 1.6. Immunoblotting Analysis […]
(§3) 1.7. ABPP-based LOX inhibitor specificity validation
(§4) A549 cells were lysed by RIPA buffer supplemented with 1x PIC. After sonication and centrifugation, the supernatant was collected, and the protein concentration was determined by a Pierce BCA Protein Assay Kit (Thermo Fisher Scientific, USA). The lysates were then diluted with PBS to 300 ng/µl and stored in -20°C. To label endogenous LOXs with Labelox B under the competition condition, 180 µl diluted lysates were incubated with 200 µl different LOX inhibitor solution (in PBS) with desired concentrations for 18 min to inhibit LOXs activity. Later, 20 µl of a 20 µM Labelox B (in PBS) was added and incubated shortly for 2 min, followed by adding 50 µl of a 0.5 M EDTA to stop the labeling reaction. The reaction mixture was 450 µl in total. Inhibitors and Labelox B were absent in positive and […]
(1 picture or pasted object on this page, not shown here) […]
(§5) negative control, respectively. To detect the competition labeling of Labelox B among different LOXs, a high-binding 96-well plate (Greiner, #M4561) was coated with 5-LOX (#ab169755, Abcam), 12-LOX […]
(1:500 dilution in PBS) for overnight at 4°C. After washing triply with 0.05%PBST, the plate was blocked with 2% (w/v) BSA in PBST. Subsequently, 100 µl of each reaction mixture was added to the LOX-antibody-coated wells. There are four LOX antibodies used for coating. Therefore, in total, 400 µl mixture is needed for each reaction. After one hour of incubation, LOXs were pulled down by antibodies accordingly. Next, 100 µl of HRP-conjugated streptavidin (1:2000 dilution in PBS, Thermo Fisher Scientific, USA) was added to each well to detect the D04 labeled LOXs among precipitated LOXs. […] The absorbance at […]

15-LOX-1 = target: T2, 15-LOX-1 (Homo sapiens, UniProt P16050); experiment: ABP-based ELISA assay with A549 cell lysate, 15-LOX-1; type: biochemical; design: the endogenous LOXs were captured on an anti‐LOX antibody precoated 96‐well plate; endogenous in cells; host or cells: A549 cell lysate
T2 sequence (P16050 1-662): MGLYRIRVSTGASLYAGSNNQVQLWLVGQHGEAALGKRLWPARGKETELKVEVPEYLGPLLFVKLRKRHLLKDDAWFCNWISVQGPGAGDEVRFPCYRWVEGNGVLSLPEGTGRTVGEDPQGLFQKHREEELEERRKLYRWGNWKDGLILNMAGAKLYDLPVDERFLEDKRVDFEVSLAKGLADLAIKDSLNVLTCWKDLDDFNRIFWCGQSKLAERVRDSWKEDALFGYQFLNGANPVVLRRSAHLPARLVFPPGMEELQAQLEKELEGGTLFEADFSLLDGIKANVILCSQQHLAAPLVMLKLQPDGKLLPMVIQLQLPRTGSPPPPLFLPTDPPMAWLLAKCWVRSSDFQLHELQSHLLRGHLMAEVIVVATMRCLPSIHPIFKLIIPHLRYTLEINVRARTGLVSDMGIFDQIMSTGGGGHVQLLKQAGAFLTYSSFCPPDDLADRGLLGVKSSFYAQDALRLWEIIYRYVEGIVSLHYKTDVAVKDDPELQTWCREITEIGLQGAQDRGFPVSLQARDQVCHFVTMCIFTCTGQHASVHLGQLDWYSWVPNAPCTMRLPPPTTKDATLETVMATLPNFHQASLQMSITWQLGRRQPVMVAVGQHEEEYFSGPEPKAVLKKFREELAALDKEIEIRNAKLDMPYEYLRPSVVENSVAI
Description: as §1, §2, §3, §4, §5
(1:500 dilution in PBS) for overnight at 4°C. After washing triply with 0.05%PBST, the plate was blocked with 2% (w/v) BSA in PBST. Subsequently, 100 µl of each reaction mixture was added to the LOX-antibody-coated wells. There are four LOX antibodies used for coating. Therefore, in total, 400 µl mixture is needed for each reaction. After one hour of incubation, LOXs were pulled down by antibodies accordingly. Next, 100 µl of HRP-conjugated streptavidin (1:2000 dilution in PBS, Thermo Fisher Scientific, USA) was added to each well to detect the D04 labeled LOXs among precipitated LOXs. After washing with PBST, 100 µl of mixed HRP substrate reagent (R&D Systems, Minneapolis, USA) was added, and the colorizing reaction was stopped by adding 100 µl of 1M sulfuric acid. The absorbance at […]

| Compound | HillSlope Value (15-LOX-2) | HillSlope Value (15-LOX-1) | IC50 (15-LOX-2; 1 μM Labelox B) | IC50 (15-LOX-1; 1 μM Labelox B) [µM] |
| --- | --- | --- | --- | --- |
| O=c1cc(-c2ccccc2)oc2cc(O)c(O)c(O)c12 [Baicalein] | -0.34 | -0.47 | – | – |
| c1ccc2c(c1)SCc1c-2[nH]c2ccccc12 [PD146176] | -0.88 | -0.93 | > 100 µM and 123 µM | 17.3 |
